Assay [1] relates to PBMC from peanut allergic and non-allergic donors (IFNγ production). Briefly: IFNγ ELISPOT with individual peptides after 14-day in vitro expansion (epitope mapping). Type of assay: cell-based, human. The following applies: SFC per 10^6 PBMC, individual peptide 10 μg/ml, 24 h, after 14-day culture; for IFNg Average SFC (allergics): allergic donors; for IFNg Average SFC (controls): non-allergic controls. The protocol:
(§1) For in vitro expansions, PBMCs were thawed and cultured in RPMI 1640 (Omega Scientific, Tarzana, CA) supplemented with 5% human AB serum (Gemini Bio-Products, West Sacramento, CA) at a density of 2 × 10^6 cells per mL in 24-well plates (Corning, San Diego, CA) and stimulated with peanut extract (10 μg/ml) or peptide pools at 5 μg/mL. Cells were kept at 37°C, 5% CO2, and additional IL-2 (10 U/mL; ThermoFisher, San Diego, CA) was added every 3 days after initial antigenic stimulation. On day 14, cells were harvested and reactivity against peanut extract (10 μg/ml), peanut specific peptide pools (5 μg/ml) and individual peptides (10 μg/ml) was assessed. The production of IL-5 and IFNγ post-stimulation with peanut extract was analyzed in dual ELISPOT assays. Flat-bottom 96-well nitrocellulose plates (Millipore, Bedford, MA) were prepared according to the manufacturer’s instructions and coated with either 10 μg/ml of both anti-human IL-5 (clone TRFK5) and anti-human IFNγ (clone 1-D1K) or anti-human IL-10 (clone 9D7) and anti-human IL-17 (clone MT44.6) (Mabtech, Cincinnati, OH). PBMC were then incubated at a density of 1 × 10^5/well either with peptide pools (5 μg/ml) or individual peptides (10 μg/ml), peanut extract (10 μg/ml), PHA (10 μg/ml), or medium containing 0.25% DMSO (corresponding to the highest percentage of DMSO in the pools/peptides condition) as a control. After 24 h, cells were removed, and plates were incubated with a cocktail containing either biotinylated anti-human IL-5 (1:50 dilution) (clone 5A10) and horseradish peroxidase (HRP)-conjugated anti-human IFNγ (1:200 dilution) (clone 7-B6-1) or biotinylated anti-human IL-17 (1:200 dilution) (clone MT504) anti-human alkaline phosphatase (AP)-conjugated IL-10 (1:200 dilution) (clone 12G8) (Mabtech, Cincinnati, OH) at 37°C. After 2 h, spots corresponding to the biotinylated IL-5 Ab were developed by incubation with Alkaline-phosphatase-Complex (Vector Laboratories, Burlingame, CA) and then visualized by applying the Vector Blue Alkaline Phosphatase Substrate Kit III (Vector Laboratories, Burlingame, CA) according to the manufacturer’s instructions. Spots corresponding to the HRP-conjugated anti-human IFNγ Ab were visualized by incubation with 3-amino-9-ethylcarvazole solution (Sigma-Aldrich, St. Louis, MO). Spots were counted by computer-assisted image analysis (KS-ELISPOT reader, Zeiss, Munich). Each assay was performed in triplicate. The level of statistical significance was determined with a Student t test using the mean of triplicate values of the response against relevant pools or individual peptides versus the response against the DMSO control. Criteria for response positivity were 20 spot-forming cells (SFCs)/10^6 PBMC, p ≤ 0.05, and a stimulation index (SI) ≥ 2. SFCs are measured per 10^5 PBMC, subsequently readings are background subtracted and multiplied by 10 to be expressed as SFC per million PBMC. T cell epitope mapping was performed to determine epitopes from the major peanut allergens Ara h 1, 2 and 3, recognized by peanut allergic (n = 11) and non-allergic (n = 10) donors. As these studies were performed with samples obtained from pediatric patients, available blood sample volumes were limiting. To overcome this limitation, small pools of predicted peptides matched to the HLA molecules expressed in each donor were tested. For each donor, class II binding affinity predictions were performed using algorithms available through the IEDB (www.iedb.org)[18], to identify the top 6 predicted binders for each of the alleles expressed at the four HLA class II loci (DRB1, DRB3/4/5, DQB1, and DPB1). Accordingly, the screening load for each donor was reduced from 400 peptides to a maximum of 48 peptides (6 peptides x ≤8 class II molecules, less for homozygous donors). The six top predicted peptides for each allele were used to generate allele-specific pools, which were in turn used to expand peanut-specific cells in vitro. […]

For assay [2], the system named is PBMC from peanut allergic and non-allergic donors (IL-5 production). In words: IL-5 ELISPOT with individual peptides after 14-day in vitro expansion (epitope mapping). Format: cell-based, human. Particulars: SFC per 10^6 PBMC, individual peptide 10 μg/ml, 24 h, after 14-day culture; for IL-5 Average SFC (allergics): allergic donors; for IL-5 Average SFC (controls): non-allergic controls. As for the experimental part:
as §1

For the sequence “AFQVDDRQIVQNLRG [Ara h 3 15-mer, position 276]”, in assay [1], the “IFNg Average SFC (allergics)” value was found to be 0 SFC and the “IFNg Average SFC (controls)” value amounted to 0 SFC. Also, in assay [2], the “IL-5 Average SFC (allergics)” value is 85 SFC and the “IL-5 Average SFC (controls)” value turned out to be 10 SFC.
In the case of “AGVALSRLVLRRNAL [Ara h 3 15-mer, position 66]”, in assay [1], the “IFNg Average SFC (controls)” value came to 603 SFC. Besides, the “IL-5 Average SFC (controls)” value in assay [2] came out at 753 SFC.
With “ALFLLAAHASARQQW [Ara h 2 15-mer, position 11]”, in assay [1], the “IFNg Average SFC (allergics)” value turned out to be 0 SFC and the “IFNg Average SFC (controls)” value is given as 545 SFC. In assay [2], the “IL-5 Average SFC (allergics)” value is given as 11 SFC and the “IL-5 Average SFC (controls)” value is 270 SFC.
Regarding “CMCEALQQIMENQSD [Ara h 2 15-mer, position 116]”, the “IFNg Average SFC (controls)” value in assay [1] worked out at 0 SFC. In assay [2], the “IL-5 Average SFC (controls)” value is given as 59 SFC.
Consider “DADNILVIQQGQATV [Ara h 1 15-mer, position 231]”, for which, in assay [1], the “IFNg Average SFC (allergics)” value came out at 0 SFC and the “IFNg Average SFC (controls)” value was 37 SFC. For the same sequence, in assay [2], the “IL-5 Average SFC (allergics)” value is reported as 25 SFC and the “IL-5 Average SFC (controls)” value was 0 SFC.
On to “DVFIMPAAHPVAINA [Ara h 1 15-mer, position 508]”, for which the “IFNg Average SFC (controls)” value in assay [1] was 0 SFC. Besides, the “IL-5 Average SFC (controls)” value in assay [2] is listed as 34 SFC.
Turning to “EQENEGSNIFSGFAQ [Ara h 3 15-mer, position 232]”, in assay [1], the “IFNg Average SFC (allergics)” value came to 25 SFC and the “IFNg Average SFC (controls)” value came out at 0 SFC. For the same sequence, in assay [2], the “IL-5 Average SFC (allergics)” value worked out at 0 SFC and the “IL-5 Average SFC (controls)” value worked out at 17 SFC.
Regarding “EQGAIVTVKGGLRIL [Ara h 3 15-mer, position 271]”, in assay [1], the “IFNg Average SFC (allergics)” value is reported as 0 SFC and the “IFNg Average SFC (controls)” value came out at 220 SFC. Moreover, in assay [2], the “IL-5 Average SFC (allergics)” value turned out to be 0 SFC and the “IL-5 Average SFC (controls)” value came to 182 SFC.
As for “EQGAIVTVRGGLRIL [Ara h 3 15-mer, position 296]”, in assay [1], the “IFNg Average SFC (allergics)” value is on record as 142 SFC and the “IFNg Average SFC (controls)” value is listed as 252 SFC. Moreover, in assay [2], the “IL-5 Average SFC (allergics)” value worked out at 78 SFC and the “IL-5 Average SFC (controls)” value is recorded as 205 SFC.
The corresponding values for “EYLAFKTDSRPSIAN [Ara h 3 15-mer, position 446; P19 pool member]” are 0 SFC, 270 SFC, 307 SFC and 50 SFC.
Taken in the same sequence, the figures for “EYVAFKTDSRPSIAN [Ara h 3 15-mer, position 471; P19 pool member]” were 27 SFC, 539 SFC, 651 SFC and 225 SFC.
For the sequence “FCFLVLGASSISFRQ [Ara h 3 15-mer, position 11]”, the “IFNg Average SFC (controls)” value in assay [1] was found to be 0 SFC. Further, the “IL-5 Average SFC (controls)” value in assay [2] is 25 SFC.
“FCVLVLGASSVTFRQ [Ara h 3 15-mer, position 11]”: in assay [1], the “IFNg Average SFC (allergics)” value worked out at 22 SFC and the “IFNg Average SFC (controls)” value stood at 0 SFC. For the same sequence, in assay [2], the “IL-5 Average SFC (allergics)” value was 0 SFC and the “IL-5 Average SFC (controls)” value stood at 28 SFC.
“FQNLQNHRIVQIEAK [Ara h 1 15-mer, position 206; P19 pool member]”: in assay [1], the “IFNg Average SFC (allergics)” value is reported as 0 SFC and the “IFNg Average SFC (controls)” value was 0 SFC. Moreover, in assay [2], the “IL-5 Average SFC (allergics)” value was 74 SFC and the “IL-5 Average SFC (controls)” value is listed as 0 SFC.
For “FQNLQNHRIVQIEAR [Ara h 1 15-mer, position 206]”, in assay [1], the “IFNg Average SFC (allergics)” value was 13 SFC and the “IFNg Average SFC (controls)” value was 0 SFC. In addition, in assay [2], the “IL-5 Average SFC (allergics)” value stood at 64 SFC and the “IL-5 Average SFC (controls)” value is recorded as 0 SFC.
Turning to “FVPHYTLNAHTIVVA [Ara h 3 15-mer, position 386]”, in assay [1], the “IFNg Average SFC (allergics)” value is 117 SFC and the “IFNg Average SFC (controls)” value is listed as 94 SFC. In assay [2], the “IL-5 Average SFC (allergics)” value was found to be 163 SFC and the “IL-5 Average SFC (controls)” value amounted to 70 SFC.
On to “GGNIFSGFTPEFLAQ [Ara h 3 15-mer, position 261]”, for which, in assay [1], the “IFNg Average SFC (allergics)” value is reported as 62 SFC and the “IFNg Average SFC (controls)” value is listed as 0 SFC. Also, in assay [2], the “IL-5 Average SFC (allergics)” value came out at 0 SFC and the “IL-5 Average SFC (controls)” value is given as 141 SFC.
Turning to “GHALRIPSGFISYIL [Ara h 1 15-mer, position 261]”, in assay [1], the “IFNg Average SFC (allergics)” value was determined as 0 SFC and the “IFNg Average SFC (controls)” value worked out at 0 SFC. Moreover, in assay [2], the “IL-5 Average SFC (allergics)” value is reported as 0 SFC and the “IL-5 Average SFC (controls)” value came to 1080 SFC.
Take “GLRILSPDEEDESSR [Ara h 3 15-mer, position 281]”: in assay [1], the “IFNg Average SFC (controls)” value is recorded as 293 SFC. Also, in assay [2], the “IL-5 Average SFC (controls)” value turned out to be 403 SFC.
As for “GRIRVLQRFDQRSKQ [Ara h 1 15-mer, position 191; P19 pool member]”, in assay [1], the “IFNg Average SFC (allergics)” value was 49 SFC and the “IFNg Average SFC (controls)” value is on record as 197 SFC. In addition, in assay [2], the “IL-5 Average SFC (allergics)” value is recorded as 253 SFC and the “IL-5 Average SFC (controls)” value is given as 66 SFC.
Turning to “GRIRVLQRFDQRSRQ [Ara h 1 15-mer, position 191; P19 pool member]”, in assay [1], the “IFNg Average SFC (allergics)” value turned out to be 19 SFC and the “IFNg Average SFC (controls)” value is 168 SFC. Moreover, in assay [2], the “IL-5 Average SFC (allergics)” value amounted to 227 SFC and the “IL-5 Average SFC (controls)” value worked out at 105 SFC.
Take “GSNIFSGFAQEFLQH [Ara h 3 15-mer, position 237]”: the “IFNg Average SFC (controls)” value in assay [1] came out at 0 SFC. Also, the “IL-5 Average SFC (controls)” value in assay [2] came to 29 SFC.
As to “GSRPHYRQISPRVRG [Ara h 3 15-mer, position 216]”, in assay [1], the “IFNg Average SFC (allergics)” value worked out at 0 SFC and the “IFNg Average SFC (controls)” value came out at 57 SFC. Moreover, in assay [2], the “IL-5 Average SFC (allergics)” value was determined as 203 SFC and the “IL-5 Average SFC (controls)” value is recorded as 287 SFC.
Taken in the same sequence, the figures for “HVQVVDSNGNRVYDE [Ara h 3 15-mer, position 406; P19 pool member]” were 0 SFC, 240 SFC, 385 SFC and 0 SFC.
As for “ILVAPALFLLAAHAS [Ara h 2 15-mer, position 6]”, in assay [1], the “IFNg Average SFC (allergics)” value is given as 0 SFC and the “IFNg Average SFC (controls)” value stood at 108 SFC. In assay [2], the “IL-5 Average SFC (allergics)” value is 0 SFC and the “IL-5 Average SFC (controls)” value is 40 SFC.
“IPSGFISYILNRHDN [Ara h 1 15-mer, position 266]”: in assay [1], the “IFNg Average SFC (allergics)” value is reported as 0 SFC and the “IFNg Average SFC (controls)” value is recorded as 0 SFC. Besides, in assay [2], the “IL-5 Average SFC (allergics)” value stood at 78 SFC and the “IL-5 Average SFC (controls)” value was 180 SFC.
As to “KAMVIVVINKGTGNL [Ara h 1 15-mer, position 451]”, the “IFNg Average SFC (controls)” value in assay [1] is reported as 43 SFC. Also, the “IL-5 Average SFC (controls)” value in assay [2] is given as 53 SFC.
“KAMVIVVVNKGTGNL [Ara h 1 15-mer, position 451]”: in assay [1], the “IFNg Average SFC (allergics)” value is 42 SFC and the “IFNg Average SFC (controls)” value is listed as 28 SFC. Moreover, in assay [2], the “IL-5 Average SFC (allergics)” value was determined as 108 SFC and the “IL-5 Average SFC (controls)” value turned out to be 0 SFC.

Source of the values: article PMC6179248, “Peanut-specific T cell responses in patients with different clinical reactivity” (PLoS ONE, 2018).
